Laboratory results reported in US11672821B2, “Methods for treating respiratory conditions using ionic aqueous polysaccharide compositions” (Gerolymatos International S.A., priority 2013, dated 2023).

What was measured:
IL-8 = assay: HCPt-induced IL-8 secretion in three-dimensional nasal epithelial cultures from an allergic donor, ELISA; format: cell-based, human; details: 30 μl of 20 mM HCPt, 16 hours exposure; peak of IL-8 secretion at Day 4
[1] = test system: human nasal epithelial cells; assay: Cilia beating frequency (CBF) in three-dimensional nasal epithelial cultures from an allergic donor; format: cell-based; details: Day 4, versus control

SMILES: [Cl][Pt-2]([Cl])([Cl])([Cl])([Cl])[Cl].[NH4+].[NH4+] [HCPt, Ammonium hexachloroplatinate]
- IL-8 secretion with HCPt alone (IL-8): efficiently induced inflammation
- cilia beating frequency (CBF) with HCPt alone [1]: reduced CBF versus control
